{"source": "patent US10131652B2", "about": "“Pyrimidinyloxy benzene derivatives as herbicides” (E. I. DU PONT DE NEMOURS AND COMPANY, priority 2014, dated 2018)", "assay_in_all_cases": "Test D pre-/postemergence plant response", "type_in_all_cases": "in vivo", "key": {"[1]": {"test_system": "Italian ryegrass (Lolium multiflorum)", "conditions": "Lolium multiflorum; for pest or weed control at 31 g/ha: 31 g ai/ha; for pest or weed control at 62 g/ha: 62 g ai/ha; for pest or weed control at 125 g/ha: 125 g ai/ha; for pest or weed control at 250 g/ha: 250 g ai/ha", "in_short": "(§1)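 Pre-/post-emergence greenhouse test. Pre: seeded loam+sand, sprayed same day. Post: 1–4 leaf plants (2–18 cm), peat/vermiculite mix. Formulation: non-phytotoxic solvent + surfactant. Scored visually d13–15, 0–100 vs control.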"}, "[2]": {"test_system": "ragweed (common ragweed, Ambrosia elatior)", "conditions": "Ambrosia artemisiifolia; for pest or weed control at 31 g/ha: 31 g ai/ha; for pest or weed control at 62 g/ha: 62 g ai/ha; for pest or weed control at 125 g/ha: 125 g ai/ha; for pest or weed control at 250 g/ha: 250 g ai/ha", "in_short": "as §1"}, "[3]": {"test_system": "giant foxtail (Setaria faberii)", "conditions": "Setaria faberi; for pest or weed control at 31 g/ha: 31 g ai/ha; for pest or weed control at 62 g/ha: 62 g ai/ha; for pest or weed control at 125 g/ha: 125 g ai/ha; for pest or weed control at 250 g/ha: 250 g ai/ha", "in_short": "as §1"}, "[4]": {"test_system": "waterhemp (common waterhemp, Amaranthus rudis)", "conditions": "Amaranthus tuberculatus; for pest or weed control at 31 g/ha: 31 g ai/ha; for pest or weed control at 62 g/ha: 62 g ai/ha; for pest or weed control at 125 g/ha: 125 g ai/ha; for pest or weed control at 250 g/ha: 250 g ai/ha", "in_short": "as §1"}, "corn (Zea mays)": {"test_system": "corn (Zea mays)", "conditions": "Zea mays; for Corn plant response rating (crop injury, 0 = no effect, 100 = complete kill) at 62 g/ha: 62 g ai/ha", "in_short": "as §1"}, "[5]": {"test_system": "morningglory (Ipomoea coccinea)", "conditions": "Ipomoea; for pest or weed control at 125 g/ha: 125 g ai/ha; for pest or weed control at 250 g/ha: 250 g ai/ha", "in_short": "as §1"}, "[6]": {"conditions": "post-emergence, Postemergence, scale 0 to 100, 0 no effect, 100 complete control, read-out: Plant response rating, Ryegrass, Italian"}, "[7]": {"conditions": "pre-emergence, Preemergence, read-out: Plant response rating (scale 0 to 100), Ryegrass, Italian"}, "[8]": {"conditions": "pre-emergence, Preemergence, scale 0 to 100 (0 no effect, 100 complete control), read-out: Plant response rating, Ryegrass, Italian"}, "[9]": {"conditions": "post-emergence, Postemergence, scale 0 to 100, 0 no effect, 100 complete control, read-out: Plant response rating, Ragweed"}, "[10]": {"conditions": "pre-emergence, Preemergence, read-out: Plant response rating (scale 0 to 100), Ragweed"}, "[11]": {"conditions": "pre-emergence, Preemergence, scale 0 to 100 (0 no effect, 100 complete control), read-out: Plant response rating, Ragweed"}, "[12]": {"conditions": "post-emergence, Postemergence, scale 0 to 100, 0 no effect, 100 complete control, read-out: Plant response rating, Foxtail, Giant"}, "[13]": {"conditions": "pre-emergence, Preemergence, read-out: Plant response rating (scale 0 to 100), Foxtail, Giant"}, "[14]": {"conditions": "pre-emergence, Preemergence, scale 0 to 100 (0 no effect, 100 complete control), read-out: Plant response rating, Foxtail, Giant"}, "[15]": {"conditions": "post-emergence, Postemergence, scale 0 to 100, 0 no effect, 100 complete control, read-out: Plant response rating, Waterhemp"}, "[16]": {"conditions": "pre-emergence, Preemergence, read-out: Plant response rating (scale 0 to 100), Waterhemp"}, "[17]": {"conditions": "pre-emergence, Preemergence, scale 0 to 100 (0 no effect, 100 complete control), read-out: Plant response rating, Waterhemp"}, "[18]": {"conditions": "post-emergence, Postemergence, scale 0 to 100, 0 no effect, 100 complete control, read-out: Plant response rating, Morningglory"}, "[19]": {"conditions": "pre-emergence, Preemergence, read-out: Plant response rating (scale 0 to 100), Morningglory"}}, "note": "Where two headings read alike, the source gives them in different places."}
{"smiles": "FC(F)c1cc(-c2ccccc2Oc2ncc(Br)cn2)no1", "note": "[Compound 62, 5-bromo-2-[2-[5-(difluoromethyl)-3-isoxazolyl]phenoxy]pyrimidine]", "values": [{"measurement": "pest or weed control at 31 g/ha", "setting": "[1]; post-emergence, Postemergence, scale 0 to 100 (0 no effect, 100 complete control), read-out: Ryegrass, Italian plant response rating", "result": 5, "unit": "%"}, {"measurement": "pest or weed control at 62 g/ha", "setting": "[1]; [6]", "result": 5, "unit": "%"}, {"measurement": "pest or weed control at 125 g/ha", "setting": "[1]; [6]", "result": 30, "unit": "%"}, {"measurement": "pest or weed control at 250 g/ha", "setting": "[1]; [6]", "result": 40, "unit": "%"}, {"measurement": "pest or weed control at 125 g/ha", "setting": "[1]; [7]", "result": 90, "unit": "%"}, {"measurement": "pest or weed control at 250 g/ha", "setting": "[1]; [7]", "result": 95, "unit": "%"}, {"measurement": "pest or weed control at 31 g/ha", "setting": "[1]; [8]", "result": 40, "unit": "%"}, {"measurement": "pest or weed control at 62 g/ha", "setting": "[1]; [8]", "result": 60, "unit": "%"}, {"measurement": "pest or weed control at 31 g/ha", "setting": "[2]; post-emergence, Postemergence, scale 0 to 100 (0 no effect, 100 complete control), read-out: Ragweed plant response rating", "result": 65, "unit": "%"}, {"measurement": "pest or weed control at 62 g/ha", "setting": "[2]; [9]", "result": 60, "unit": "%"}, {"measurement": "pest or weed control at 125 g/ha", "setting": "[2]; [9]", "result": 65, "unit": "%"}, {"measurement": "pest or weed control at 250 g/ha", "setting": "[2]; [9]", "result": 85, "unit": "%"}, {"measurement": "pest or weed control at 125 g/ha", "setting": "[2]; [10]", "result": 75, "unit": "%"}, {"measurement": "pest or weed control at 250 g/ha", "setting": "[2]; [10]", "result": 85, "unit": "%"}, {"measurement": "pest or weed control at 31 g/ha", "setting": "[2]; [11]", "result": 0, "unit": "%"}, {"measurement": "pest or weed control at 62 g/ha", "setting": "[2]; [11]", "result": 65, "unit": "%"}, {"measurement": "pest or weed control at 31 g/ha", "setting": "[3]; post-emergence, Postemergence, scale 0 to 100 (0 no effect, 100 complete control), read-out: Foxtail, Giant plant response rating", "result": 25, "unit": "%"}, {"measurement": "pest or weed control at 62 g/ha", "setting": "[3]; [12]", "result": 25, "unit": "%"}, {"measurement": "pest or weed control at 125 g/ha", "setting": "[3]; [12]", "result": 20, "unit": "%"}, {"measurement": "pest or weed control at 250 g/ha", "setting": "[3]; [12]", "result": 55, "unit": "%"}, {"measurement": "pest or weed control at 125 g/ha", "setting": "[3]; [13]", "result": 100, "unit": "%"}, {"measurement": "pest or weed control at 250 g/ha", "setting": "[3]; [13]", "result": 100, "unit": "%"}, {"measurement": "pest or weed control at 31 g/ha", "setting": "[3]; [14]", "result": 95, "unit": "%"}, {"measurement": "pest or weed control at 62 g/ha", "setting": "[3]; [14]", "result": 100, "unit": "%"}, {"measurement": "pest or weed control at 31 g/ha", "setting": "[4]; post-emergence, Postemergence, scale 0 to 100 (0 no effect, 100 complete control), read-out: Waterhemp plant response rating", "result": 98, "unit": "%"}, {"measurement": "pest or weed control at 62 g/ha", "setting": "[4]; [15]", "result": 98, "unit": "%"}, {"measurement": "pest or weed control at 125 g/ha", "setting": "[4]; [15]", "result": 98, "unit": "%"}, {"measurement": "pest or weed control at 250 g/ha", "setting": "[4]; [15]", "result": 100, "unit": "%"}, {"measurement": "pest or weed control at 125 g/ha", "setting": "[4]; [16]", "result": 100, "unit": "%"}, {"measurement": "pest or weed control at 250 g/ha", "setting": "[4]; [16]", "result": 100, "unit": "%"}, {"measurement": "pest or weed control at 31 g/ha", "setting": "[4]; [17]", "result": 100, "unit": "%"}, {"measurement": "pest or weed control at 62 g/ha", "setting": "[4]; [17]", "result": 100, "unit": "%"}, {"measurement": "plant injury at 31 g/ha", "setting": "corn (Zea mays); post-emergence, Postemergence, 31 g ai/ha, scale 0 to 100 (0 no effect, 100 complete control), read-out: Corn plant response rating", "result": 10, "unit": "%"}, {"measurement": "Corn plant response rating (crop injury, 0 = no effect, 100 = complete kill) at 62 g/ha", "setting": "corn (Zea mays); post-emergence, Postemergence, scale 0 to 100, 0 no effect, 100 complete control", "result": 10, "unit": "%"}, {"measurement": "Corn plant response rating (crop injury, 0 = no effect, 100 = complete kill) at 125 g/ha", "setting": "corn (Zea mays); post-emergence, Postemergence, 125 g ai/ha, scale 0 to 100, 0 no effect, 100 complete control", "result": 15, "unit": "%"}, {"measurement": "Corn plant response rating (crop injury, 0 = no effect, 100 = complete kill) at 250 g/ha", "setting": "corn (Zea mays); post-emergence, Postemergence, 250 g ai/ha, scale 0 to 100, 0 no effect, 100 complete control", "result": 10, "unit": "%"}, {"measurement": "plant injury at 125 g/ha", "setting": "corn (Zea mays); pre-emergence, Preemergence, 125 g ai/ha, read-out: Plant response rating (scale 0 to 100), Corn", "result": 60, "unit": "%"}, {"measurement": "plant injury at 250 g/ha", "setting": "corn (Zea mays); pre-emergence, Preemergence, 250 g ai/ha, read-out: Plant response rating (scale 0 to 100), Corn", "result": 70, "unit": "%"}, {"measurement": "Corn plant response rating (crop injury, 0 = no effect, 100 = complete kill) at 31 g/ha", "setting": "corn (Zea mays); pre-emergence, Preemergence, 31 g ai/ha, scale 0 to 100 (0 no effect, 100 complete control)", "result": 35, "unit": "%"}, {"measurement": "Corn plant response rating (crop injury, 0 = no effect, 100 = complete kill) at 62 g/ha", "setting": "corn (Zea mays); pre-emergence, Preemergence, scale 0 to 100 (0 no effect, 100 complete control)", "result": 30, "unit": "%"}, {"measurement": "pest or weed control at 31 g/ha", "setting": "[5]; post-emergence, Postemergence, 31 g ai/ha, scale 0 to 100 (0 no effect, 100 complete control), read-out: Morningglory plant response rating", "result": 85, "unit": "%"}, {"measurement": "pest or weed control at 62 g/ha", "setting": "[5]; post-emergence, Postemergence, 62 g ai/ha, scale 0 to 100, 0 no effect, 100 complete control, read-out: Plant response rating, Morningglory", "result": 95, "unit": "%"}, {"measurement": "pest or weed control at 125 g/ha", "setting": "[5]; [18]", "result": 95, "unit": "%"}, {"measurement": "pest or weed control at 250 g/ha", "setting": "[5]; [18]", "result": 98, "unit": "%"}, {"measurement": "pest or weed control at 125 g/ha", "setting": "[5]; [19]", "result": 98, "unit": "%"}, {"measurement": "pest or weed control at 250 g/ha", "setting": "[5]; [19]", "result": 100, "unit": "%"}]}
